Assay results as given in patent US20210163404A1, “NOVEL UREA COMPOUNDS AND BIOISOSTERES THEREOF AND THEIR USE FOR TREATING INFLAMMATION AND INFLAMMATION-RELATED PATHOLOGIES” (UNIVERSITÉ LAVAL, priority 2017, published 2021).

Experiments:
[1] = system: HaCaT keratinocyte cell line; assay: Antiproliferative activity (NCI procedure, sulforhodamine B), HaCaT; type: cell-based, human; details: Homo sapiens, HaCaT, 48 h
Procedure, shortened: (§1)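 Cells seeded in DMEM, grown 24 h at 37 °C, then exposed 48 h to serial dilutions from 100 μM to 781 nM (DMSO <0.5%). TCA fixation, sulforhodamine B staining, absorbance at 530-568 nm; growth inhibition relative to plates fixed on treatment day. At least two experiments in triplicate.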

[2] = system: HDFn neonatal dermal fibroblast cell line; assay: Antiproliferative activity (NCI procedure, sulforhodamine B), HDFn; type: cell-based, human; details: Homo sapiens, Fibroblast, 48 h
Procedure, shortened: as §1

IL-6 = IL-6 expression in HaCaT cells stimulated with IL-17A and TNFα (ELISA); type: cell-based, human; details: 10 μM solutions; HaCaT stimulated with IL-17A and TNFα; mean of five experiments in duplicate
From the text: The effect of compounds 3a-b, 4a-e, 5a-e and 6a-e on the expression of IL-6 was subsequently assessed using the HaCaT spontaneously transformed aneuploid immortal keratinocyte cell line, stimulated by the addition of IL-17A and TNFα in the culture medium (Table 1). Curcumin and ibuprofen were used as known IL-6 expression inhibitors. DMSO was used for solubilizing the drugs. […] Indeed, the inhibitory effect of these molecules was at least equivalent to that of curcumin [27] and ibuprofen, both recognized as anti-inflammatory drugs. The inhibitory effect of the substituted phenyl cycloalkylureas in accordance with an embodiment of the present disclosure on proinflammatory cytokines was also found at the mRNA level. Indeed, the mRNAs of the cytokines IL-6 and TNF-α as well as the mRNA of the chemokine IL-8 were lowered in TNF-α/IL-17A-stimulated HaCaT cells. Similar results were obtained in THP-1 cells stimulated with LPS where treatments with CHEU and 4e diminished the mRNA levels of the cytokines IL-1B, IL-6 and TNF-α in addition to the mRNA levels of the chemokine IL-8. It is surmised that the anti-inflammatory mechanism of action of the compounds of the present disclosure is likely mediated, at least in part, by modulating the phosphorylation state of the MAP kinase p38. […] Addition of a compound in accordance with an embodiment of the present disclosure, prior to stimulation with the aforementioned cytokines, decreases the level of p-p38 at 30-60 minutes post-stimulation. This diminution in p-p38 levels destabilizes the mRNAs of pro-inflammatory cytokines, non-limiting examples of which include TNF-α and IL-6. Moreover, it is surmised that the effect of the compounds of the present disclosure on p-p38 is potentially mediated by the activation of the phosphatase named DUSP1.
HaCaT cells (1×10^5) were suspended in DMEM culture media (500 μL) and incubated for 24 h in 24-well microtiter plates at 37° C. in a moisture-saturated atmosphere containing 5% CO2. Compounds were solubilized in DMSO and diluted in fresh DMEM. The compound (500 μL) was then added to the cell medium to obtain a final concentration of […] and the cells incubated over a period of 1 hour. In the meantime, IL-17α (200 ng/mL) and TNFα (20 ng/mL) (PeproTech, Rocky Hill, N.J.) were added to the drug solution in DMEM. Following the initial incubation of the cells, the culture medium was aspirated from each well and the IL-17α+ TNFα+ compound solution was added to each well for incubation (6 hours). The culture media was then removed and transferred to a clean tube (1.5 mL) at −80° C. until the ELISA test was performed. The presence of IL-6 in the cell media was determined using an IL-6 human Duoset ELISA kit (Fisher Scientific, Ottawa, On.) according to the manufacturer's instructions. Standards and samples were prepared and assessed in duplicate. Two separate replicates were performed for each sample. The absorbance was measured at 450 nm and 540 nm using a TECAN infinite M1000 plate reader.

[3] = system: A549 adenocarcinoma alveolar epithelial cancer cells; assay: Antiproliferative activity (NCI procedure, sulforhodamine B), A549; type: cell-based, human; details: Homo sapiens, A549, 48 h
Procedure, shortened: as §1

[4] = system: HT-29 colon adenocarcinoma cells; assay: Antiproliferative activity (NCI procedure, sulforhodamine B), HT-29; type: cell-based, human; details: Homo sapiens, HT-29, 48 h
Procedure, shortened: as §1

[5] = system: mRNAs of IL-1B, IL-6, TNF-α and IL-8; assay: mRNA levels of cytokines in THP-1 cells stimulated with LPS; type: cell-based; details: in words
From the text: The effect of compounds 3a-b, 4a-e, 5a-e and 6a-e on the expression of IL-6 was subsequently assessed using the HaCaT spontaneously transformed aneuploid immortal keratinocyte cell line, stimulated by the addition of IL-17A and TNFα in the culture medium (Table 1). Curcumin and ibuprofen were used as known IL-6 expression inhibitors. DMSO was used for solubilizing the drugs. […] Indeed, the inhibitory effect of these molecules was at least equivalent to that of curcumin [27] and ibuprofen, both recognized as anti-inflammatory drugs. The inhibitory effect of the substituted phenyl cycloalkylureas in accordance with an embodiment of the present disclosure on proinflammatory cytokines was also found at the mRNA level. Indeed, the mRNAs of the cytokines IL-6 and TNF-α as well as the mRNA of the chemokine IL-8 were lowered in TNF-α/IL-17A-stimulated HaCaT cells. Similar results were obtained in THP-1 cells stimulated with LPS where treatments with CHEU and 4e diminished the mRNA levels of the cytokines IL-1B, IL-6 and TNF-α in addition to the mRNA levels of the chemokine IL-8. It is surmised that the anti-inflammatory mechanism of action of the compounds of the present disclosure is likely mediated, at least in part, by modulating the phosphorylation state of the MAP kinase p38. […]

HaCaT cells = assay: Cell cycle analysis by flow cytometry; type: cell-based, human
Description: The effect of compounds 3a-b, 4e, 5b-c, 6a and 6e on cell cycle progression was subsequently assessed using a flow cytometer in accordance with established experimental protocols to evaluate any potential drug toxicity at specific phases of the cell cycle (Table 3).
HaCaT cells (2.5×10^5) were incubated with compounds 3a-b, 4e, 5b-c, 6a and 6e and curcumin (10 μM) over a period of 24 h. The cells were subsequently trypsinized, washed with PBS, resuspended in PBS (250 μL), fixed by the addition of ice-cold EtOH (750 μL) under agitation and stored at −20° C. until analysis. Prior to FACS analysis, cells were washed with PBS and resuspended in PBS (500 μL) containing 4′,6′-diamidino-2-phenylindole (DAPI) (2 μg/mL). The cell cycle was analyzed using an LSR II flow cytometer (BD Biosciences, Franklin Lakes, N.J.).

[6] = Table 6, unit inferred, tested 781 nM to 100 μM

melting point: 173 to 176 °C
SMILES: O=C(Nc1ccc(C2CCCCC2)cc1)NC1CC1 [Compound 54, 1-(4-Cyclohexylphenyl)-3-cyclopropylurea]
GI50 ([1]; Table 2): 74 µM
IC50 [1, 6]: 74 µM
GI50 ([2]; Table 2): 40 µM
IC50 [2, 6]: 40 µM
Expression of IL-6, HaCaT (IL-6): 29.2 ± 3.5 pg/mL
GI50 ([3]; Table 2): 48 µM
IC50 [3, 6]: 48 µM
GI50 ([4]; Table 2): 54 µM
IC50 [4, 6]: 54 µM
mRNA levels of the cytokines IL-1B, IL-6 and TNF-α and of the chemokine IL-8 [5]: diminished
Cell cycle progression G0-G1 (HaCaT cells; 10 μM, 24 h): 47.7
Cell cycle progression G2-M (HaCaT cells; 10 μM, 24 h): 28.1
Cell cycle progression S (HaCaT cells; 10 μM, 24 h): 24.2
effect on cell cycle progression (HaCaT cells; in words): did not affect the cell cycle progression
